Assay results: PubChem BioAssay AID743450 (Broad Institute, 2014)
Values joined by “and” are separate entries in the source; they are usually repeats but may differ in a detail not shown here. Equal values may be shown once. Records with an inconclusive call do not appear. Active and inactive are the calls of the source. How the calls were made is not given here.

Test: Starved TB CFU, imaging assay, inhibitor dose response, confirmatory stage (AID 743450)
Details: for activity change, negative = inhibition: at 26 µM (top of the series)

SMILES	activity change, negative = inhibition	AC90
Cn1c(NC(=O)c2ccccc2)nc2cccnc21	-100% (inactive)	
CC(C)n1c(NC(=O)c2ccccc2)nc2ccccc21		6.68 µM
Cn1c(NC(=O)c2ccccc2NC(=O)c2ccccc2)nc2ccccc21		5.02 µM
O=C(Nc1nc2ccccc2[nH]1)c1ccccc1		12.3 µM
COc1ccc2c(c1)nc(NC(=O)c1ccccc1)n2C		4.26 µM
CN(C(=O)c1ccccc1)c1nc2ccccc2n1C		> 26 µM (inactive)
CCCn1c(NC(=O)c2ccccc2)nc2ccccc21		6.02 µM
Cn1c(NC(=O)c2ccccc2)nc2ncccc21		2.23 µM
Cn1c(NC(=O)c2ccccc2)nc2ccccc21		4.27 µM and 4.2 µM
Cn1c(NC(=O)c2ccccc2)nc2c3ccncc3ccc21		6.92 µM
Cn1c(NC(=O)c2ccccc2)nc2ccc(C#N)cc21	-66% (inactive)	
COc1cccc2c1nc(NC(=O)c1ccccc1)n2C		3.66 µM
Cn1c(NC(=O)c2cccc3ccccc23)nc2ccccc21		2.81 µM
Cn1c(NC(=O)c2ccc(C(C)(C)C)cc2)nc2ccccc21		6.68 µM
O=C(Nc1nc2ccccc2n1-c1ccccc1)c1ccccc1		> 26 µM (inactive)
COc1cccc(C(=O)Nc2nc3ccccc3n2C)c1		6.18 µM
CCn1c(NC(=O)c2cnn(Cc3ccccc3)c2)nc2ccccc21	-74% (inactive)	
COCCn1c(NC(=O)c2ccccc2)nc2ccccc21		2.23 µM
Cn1c(NC(=O)c2ccccc2)nc2cc(F)ccc21		4.55 µM
Cn1c(NC(=O)c2ccccc2)nc2c(C#N)cccc21		5.26 µM
O=C(Nc1nc2ccccc2n1Cc1ccccc1)c1ccccc1		6.74 µM
Cn1c(NC(=O)c2ccc(F)c(F)c2)nc2ccccc21		19.9 µM

SMILES	activity change, negative = inhibition	AC90
Cn1c(NC(=O)c2ccc(-c3ccccc3)cc2)nc2ccccc21		6.25 µM
Cn1c(N)nc2ccccc21	3% (inactive)	
Cc1ccc2c(c1)nc(NC(=O)c1ccccc1)n2C		13.6 µM
COc1ccc(C(=O)Nc2nc3ccccc3n2C)cc1		3.71 µM
Cn1c(NC(=O)c2ccc(OC(F)(F)F)cc2)nc2ccccc21		6.61 µM
Cn1c(NC(=O)c2cccc(C(F)(F)F)c2)nc2ccccc21	-84% (inactive)	
Cc1cccc(C(=O)Nc2nc3ccccc3n2C)c1		8.9 µM
Cn1c(NC(=O)c2ccccn2)nc2ccccc21		5.17 µM
COc1ccccc1C(=O)Nc1nc2ccccc2n1C		5.86 µM
Cn1c(NC(=O)c2ccccc2)nc2cc(Cl)ccc21		6.02 µM
Cn1c(NC(=O)c2ccccc2)nc2ccc3ncccc3c21		6.35 µM
Cn1c(NC(=O)c2cccnc2)nc2ccccc21		5.75 µM
Cn1c(NC(=O)c2ccccc2)nc2c3nccnc3ccc21		1.37 µM
COc1ccc(C(=O)Nc2nc3ccccc3n2C)cc1OC		11.3 µM
Cn1c(NC(=O)c2ccccc2C(F)(F)F)nc2ccccc21		7.01 µM
Cn1c(NC(=O)c2ccccc2)nc2c3ncccc3ccc21		1.18 µM
Cn1c(NC(=O)c2ccccc2F)nc2ccccc21		4.84 µM
CC(C)Oc1ccc(C(=O)Nc2nc3ccccc3n2C)cc1		6.98 µM
O=C(Nc1nc2ccccc2n1CCN1CCCCC1)c1ccccc1		12.3 µM
Cn1c(NC(=O)c2cccc(F)c2)nc2ccccc21		7.51 µM
Cn1c(NC(=O)c2ccccc2)nc2cc(C#N)ccc21		7.91 µM
O=C(Nc1nc2ccccc2n1C1CC1)c1ccccc1		4.84 µM

SMILES	activity change, negative = inhibition	AC90
Cn1c(NC(=O)c2ccccc2)nc2ccc(F)cc21		4.72 µM
O=C(Nc1nc2ccccc2n1C1CCCCC1)c1ccccc1		8.07 µM
Cn1c(NC(=O)c2ccccc2)nc2c3cccnc3ccc21		12 µM
CCN(CC)CCn1c(NC(=O)c2ccccc2)nc2ccccc21		7.31 µM
Cn1c(NC(=O)c2cccc(OC(F)F)c2)nc2ccccc21		22.3 µM
Cn1c(NC(=O)c2ccccc2)nc2cccc(Cl)c21		10.2 µM
Cn1c(NC(=O)c2ccc(F)cc2)nc2ccccc21		5.03 µM
Cn1c(NC(=O)c2ccccc2)nc2c(F)cccc21		10.1 µM
Cn1c(NC(=O)c2ccc3ccccc3c2)nc2ccccc21		6.5 µM
CCCCn1c(NC(=O)c2ccccc2)nc2ccccc21		7.88 µM
Cc1ccc(C(=O)Nc2nc3ccccc3n2C)cc1		4.71 µM
Cc1cc(C(=O)Nc2nc3ccccc3n2C)c(C)o1		9.93 µM
O=C(Nc1nc2ccccc2n1CCN1CCOCC1)c1ccccc1	-51% (inactive)	
Cn1c(NC(=O)Cc2ccccc2)nc2ccccc21		3.85 µM
Cn1c(NC(=O)c2cccc(Cl)c2)nc2ccccc21		5.55 µM
Cn1c(NC(=O)c2ccccc2)nc2cc(C(F)(F)F)ccc21		6.01 µM
Cn1c(NC(=O)c2ccc(Cl)cc2)nc2ccccc21		12.3 µM
Cn1c(NC(=O)c2ccncc2)nc2ccccc21		15 µM
Cn1c(NC(=O)c2cccs2)nc2ccccc21		4.16 µM and 1.65 µM
CN(C)c1cccc(C(=O)Nc2nc3ccccc3n2C)c1		5.34 µM
CCn1c(NC(=O)c2ccccc2)nc2ccccc21		5.52 µM
Cn1c(NC(=O)c2ccccc2Cl)nc2ccccc21		4.64 µM
